Reference: patent US8962855B2 (priority 2011, dated 2015)

Legend:
MDA-MB-231 = assay: cells; type: cell-based, human; settings: for IC50: Homo sapiens, MDA-MB-231, 48 h, read-out: IC50, cellular anti-proliferative assay
CDK9/cyclin T1 = molecular target: T1, CDK9/cyclin T1 (Homo sapiens, UniProt P50750); assay: biochemical
T1 construct: C-terminal 6His-tagged, full-length recombinant, human cdk9 (MW=44 kDa); made in house; host or cells: Sf21 insect cells (baculovirus)

KM12 = assay: cells; type: cell-based, human; settings: for IC50: Homo sapiens, KM12, 48 h, read-out: IC50, cellular anti-proliferative assay
SW-620 = assay: cells; type: cell-based, human; settings: for IC50: Homo sapiens, SW-620, 48 h, read-out: IC50, cellular anti-proliferative assay
IGROV1 = assay: cells; type: cell-based, human; settings: for IC50: Homo sapiens, IGROV-1, 48 h, read-out: IC50, cellular anti-proliferative assay
RPMI-8226 = assay: cells; type: cell-based, human; settings: for IC50: Homo sapiens, RPMI-8226, 48 h, read-out: IC50, cellular anti-proliferative assay
MDA-MB-435 = assay: cells; type: cell-based, human; settings: for IC50: Homo sapiens, MDA-MB-435, 48 h, read-out: IC50, cellular anti-proliferative assay
CDK2/cyclin E = molecular target: T2, CDK2/cyclin E (Homo sapiens, UniProt P24941); assay: biochemical
T2 construct: C-terminal 6His-tagged, recombinant full-length CDK2 (MW=34 kDa); made in house; host or cells: Sf21 insect cells (baculovirus)

HT29 = assay: cells; type: cell-based, human; settings: for IC50: Homo sapiens, HT-29, 48 h, read-out: IC50, cellular anti-proliferative assay
M14 = assay: cells; type: cell-based, human; settings: for IC50: Homo sapiens, M14, 48 h, read-out: IC50, cellular anti-proliferative assay
HS 578T = assay: cells; type: cell-based, human; settings: for IC50: Homo sapiens, Hs-578T, 48 h, read-out: IC50, cellular anti-proliferative assay
CDK3/cyclin E = molecular target: T3, CDK3/cyclin E (Homo sapiens, UniProt Q00526); assay: biochemical
T3 construct: C-terminal 6His-tagged recombinant human full-length cdk3 (MW=36 kDa); made in house; host or cells: Sf21 insect cells (baculovirus)

NCI-H322M = assay: cells; type: cell-based, human; settings: for IC50: Homo sapiens, NCI-H322M, 48 h, read-out: IC50, cellular anti-proliferative assay

T3 sequence (Q00526 whole entry): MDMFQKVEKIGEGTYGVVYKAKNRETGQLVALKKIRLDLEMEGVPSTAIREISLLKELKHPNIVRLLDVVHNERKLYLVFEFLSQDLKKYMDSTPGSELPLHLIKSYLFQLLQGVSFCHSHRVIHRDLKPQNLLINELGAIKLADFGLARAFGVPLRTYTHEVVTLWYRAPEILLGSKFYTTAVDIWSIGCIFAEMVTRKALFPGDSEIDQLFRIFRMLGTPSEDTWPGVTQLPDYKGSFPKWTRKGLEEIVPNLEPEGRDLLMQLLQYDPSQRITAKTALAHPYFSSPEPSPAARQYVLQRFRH
T3 sequence (P24864 whole entry, further chain): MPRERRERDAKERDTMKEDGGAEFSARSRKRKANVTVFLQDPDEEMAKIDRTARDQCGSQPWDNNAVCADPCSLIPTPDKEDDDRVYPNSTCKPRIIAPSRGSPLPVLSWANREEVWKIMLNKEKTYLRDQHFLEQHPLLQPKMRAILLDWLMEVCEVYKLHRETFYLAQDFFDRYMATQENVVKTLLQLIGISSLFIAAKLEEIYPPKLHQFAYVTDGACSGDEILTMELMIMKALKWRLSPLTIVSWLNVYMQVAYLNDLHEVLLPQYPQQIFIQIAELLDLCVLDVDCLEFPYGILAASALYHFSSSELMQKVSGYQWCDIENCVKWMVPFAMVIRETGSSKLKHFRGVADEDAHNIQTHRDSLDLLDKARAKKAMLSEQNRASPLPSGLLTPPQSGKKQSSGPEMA
T1 sequence (P50750 whole entry): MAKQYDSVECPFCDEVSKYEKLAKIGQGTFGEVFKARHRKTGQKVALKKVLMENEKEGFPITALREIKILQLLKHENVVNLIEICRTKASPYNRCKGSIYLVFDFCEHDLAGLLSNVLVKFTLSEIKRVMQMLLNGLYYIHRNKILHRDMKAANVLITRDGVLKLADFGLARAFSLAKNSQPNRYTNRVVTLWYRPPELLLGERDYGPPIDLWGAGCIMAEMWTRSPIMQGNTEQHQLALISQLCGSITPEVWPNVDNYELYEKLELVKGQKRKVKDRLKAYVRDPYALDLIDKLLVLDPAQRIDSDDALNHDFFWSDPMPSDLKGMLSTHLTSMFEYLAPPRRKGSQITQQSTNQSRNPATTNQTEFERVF
T1 sequence (O60563 whole entry partner): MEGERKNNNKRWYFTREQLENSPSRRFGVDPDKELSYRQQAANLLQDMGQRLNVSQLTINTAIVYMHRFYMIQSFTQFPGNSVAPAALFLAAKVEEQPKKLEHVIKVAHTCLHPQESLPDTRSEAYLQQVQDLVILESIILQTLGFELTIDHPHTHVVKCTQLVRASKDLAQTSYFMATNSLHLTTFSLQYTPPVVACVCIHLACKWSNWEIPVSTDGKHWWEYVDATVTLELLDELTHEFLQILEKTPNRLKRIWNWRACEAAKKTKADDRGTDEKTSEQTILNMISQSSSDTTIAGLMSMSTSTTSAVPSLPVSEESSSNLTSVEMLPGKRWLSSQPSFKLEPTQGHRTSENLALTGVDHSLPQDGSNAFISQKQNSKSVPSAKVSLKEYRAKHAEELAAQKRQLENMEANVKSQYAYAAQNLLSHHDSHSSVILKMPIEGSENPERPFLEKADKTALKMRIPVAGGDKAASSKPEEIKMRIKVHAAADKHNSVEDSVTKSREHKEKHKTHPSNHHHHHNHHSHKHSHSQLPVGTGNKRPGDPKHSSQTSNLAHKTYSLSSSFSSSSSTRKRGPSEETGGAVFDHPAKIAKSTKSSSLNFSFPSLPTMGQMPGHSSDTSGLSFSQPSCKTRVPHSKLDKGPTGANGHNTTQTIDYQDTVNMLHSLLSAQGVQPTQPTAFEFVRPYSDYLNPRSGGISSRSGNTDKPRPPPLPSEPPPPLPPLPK

CC(C)(C)c1cnc(CSc2cnc(NC(=O)Cc3ccc(N(CCCl)CCCl)cc3)s2)o1 [CY-201, 2-(4-(bis(2-chloroethyl)amino)phenyl)-N-(5-((5-tert-butyloxazol-2-yl)methylthio)thiazol-2-yl)acetamide]
Ratio (MDA-MB-231): 727.8
IC50 (MDA-MB-231): 219 nM
IC50 (CDK9/cyclin T1): 90.4 nM
Ratio (KM12): 1570.4
IC50 (KM12): 91 nM
Ratio (SW-620): 895.4
IC50 (SW-620): 98 nM
Ratio (IGROV1): 1088.9
IC50 (IGROV1): 107 nM
Ratio (RPMI-8226): 280.5
IC50 (RPMI-8226): 269 nM
Ratio (MDA-MB-435): 1577.6
fold more potent than the parental drug Chlorambucil (MDA-MB-435): more than 1,500 fold
IC50 (MDA-MB-435): 79 nM
IC50 (CDK2/cyclin E): 2.7 nM
Ratio (HT29): 1227.4
IC50 (HT29): 107 nM
Ratio (M14): 1083.9
IC50 (M14): 58 nM
Ratio (HS 578T): 1273.5
IC50 (HS 578T): 148 nM
IC50 (CDK3/cyclin E): 45.6 nM
Ratio (NCI-H322M): 1380.4
IC50 (NCI-H322M): 148 nM

O=C(O)CCCc1ccc(N(CCCl)CCCl)cc1 [Chlorambucil, reference compound]
IC50 (MDA-MB-231): 159000 nM
CDK IC50, CDK9/cyclin T1 (Chlorambucil) (CDK9/cyclin T1): No activity
IC50 (KM12): 143000 nM
IC50 (SW-620): 87500 nM
IC50 (IGROV1): 117000 nM
IC50 (RPMI-8226): 75500 nM
IC50 (MDA-MB-435): 125000 nM
CDK IC50, CDK2/cyclin E (Chlorambucil) (CDK2/cyclin E): No activity
IC50 (HT29): 132000 nM
IC50 (M14): 62400 nM
IC50 (HS 578T): 188000 nM
CDK IC50, CDK3/cyclin E (Chlorambucil) (CDK3/cyclin E): No activity
IC50 (NCI-H322M): 204000 nM
